Reference: EP2832347B1, “Method for identifying patchouli odorant materials” (Takasago International Corporation, priority 2013, dated 2015)

Molecular target: T1, OR11L1 (Homo sapiens, UniProt Q8NGX0)
T1 construct: expressed in transfected cells; host or cells: HEKOlf (HEK293 stably expressing human Galpha-olf and bovine CNGA2)
T1 sequence (Q8NGX0 1-322): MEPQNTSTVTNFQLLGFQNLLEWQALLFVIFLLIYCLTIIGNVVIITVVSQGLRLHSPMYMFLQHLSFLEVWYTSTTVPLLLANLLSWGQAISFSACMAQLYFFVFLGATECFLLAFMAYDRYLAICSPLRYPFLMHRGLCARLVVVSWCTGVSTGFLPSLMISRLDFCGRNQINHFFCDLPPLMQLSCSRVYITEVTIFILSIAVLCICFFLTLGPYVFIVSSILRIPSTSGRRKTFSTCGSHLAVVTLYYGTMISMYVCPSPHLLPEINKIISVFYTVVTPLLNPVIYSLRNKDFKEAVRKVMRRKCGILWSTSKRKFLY
Assay: CRE-luciferase reporter assay in HEKOlf cells transiently transfected with OR11L1
Type: cell-based
Details: Example 3; 10/30/100 µM
Description: The experiments were performed using a HEK293 cell line (deposited at the ATCC under accession n° CRL-1573) stably expressing the Gαolf G-protein and the cyclic nucleotide gated ion channel A2 subunit (CNGA2) (herein called HEKOlf). As described by Shirokova et al., 2005, the human Gαolf cDNA was cloned into the mammalian expression vector pPuro and cDNA for the bovine cyclic nucleotide gated ion channel A2 (CNGA2) subunit was cloned into the mammalian expression vector pcDNA3. Both constructs were transfected using Lipofectamine2000 (Invitrogen) following the manufacturer's instructions. Cellular clones stably expressing Gαolf and CNGA2 were obtained by antibiotic selection with 0.5µg/ml Puromycin and 200µg/ml Geneticin.
All odorants were stored in the dark at 4°C upon delivery. […]
In this assay, the interaction of an odorant with its cognate olfactory receptor leads to the activation of the human Gαolf G-protein. […] The cells were then transferred into an automated fluorometric imaging plate reader (FLIPR^TETRA, Molecular Devices). […]
The data obtained from different well replicates were analyzed with Excel, ScreenWorks, and SigmaPlot 10. […] The mean and standard deviation of the resulting fold of change values were calculated and plotted in vertical bar charts or concentration-response curves fitted by the SigmaPlot 10 software. […]

## C[C@H]1CC[C@@]2(O)C(C)(C)[C@@H]3CC[C@@]2(C)[C@H]1C3 [Patchouli alcohol]
  response in cells transfected with OR11L1: unable to elicit a detectable response
